Test results as given in patent US6562851B2, “Substituted bicyclic compounds” (Aventis Pharma Limited, priority 1999, dated 2003).

SMILES: Cc1ccccc1Nc1nc2cc(CC(=O)Nc3ccc(C(CC(=O)O)NC(=O)CCCC(=O)O)cc3)ccc2o1 (stereo not shown) [Example 4, 4-(2-Carboxy-1-{4-[2-(2-o-tolylamino-benzoxazol-5-yl)-acetylamino]-phenyl}-ethylcarbamoyl)-butyric Acid]
- melting point: 255.6 to 257.1 °C
